# Data reported in patent publication US11795177B2, “Substituted quinoline analogs as aldehyde dehydrogenase 1A1 (ALDH1A1) inhibitors” (THE UNITED STATES OF AMERICA, AS REPRESENTED BY THE …, priority 2017, dated 2023).
# System: MIA PaCa-2 cells
# Experiment: MIA PaCa2 cell-based assay (1,536-well high-content imaging ALDEFLUOR assay)
# Parameters: species or system human
# Conditions: Homo sapiens, 0.5 h, ALDEFLUOR BAAA substrate 500 nM, 30 minutes
# Summary of the method: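 High-content ALDEFLUOR imaging readout: BAA-retaining cells in FITC channel scored against Hoechst-counted nuclei. Before imaging, MIA PaCa-2 cells seeded at 1,000 per well received final 500 nM BAAA and 0.5 nM Hoechst with compounds in 16-point series (1.4 nM to 47.8 μM), 30 min, 37° C.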
row,IC50,SMILES
1,1 to 10 µM,"O=C(c1cnc2ccc(Cl)cc2c1N1CCC2(CC1)OCCO2)N1CCN(C(=O)C2CC2)CC1 [Example 45, (6-chloro-4-(1,4-dioxa-8-azaspiro[4.5]decan-8-yl)quinolin-3-yl)(4-(cyclopropanecarbonyl)piperazin-1-yl)methanone]"
2,1 to 10 µM,"CS(=O)(=O)N1CCN(C(=O)c2cnc3ccc(F)cc3c2N2CCC3(CC2)C(=O)Cc2ccccc23)CC1 [Example 247, 1′-(6-fluoro-3-(4-(methylsulfonyl)piperazine-1-carbonyl)quinolin-4-yl)spiro[indene-1,4′-piperidin]-2(3H)-one]"
3,> 10 µM,"O=C(c1cnc2ccccc2c1N1CCC2(CC1)OCCO2)N1CCN(C(=O)C2CC2)CC1 [Example 42, (4-(1,4-dioxa-8-azaspiro[4.5]decan-8-yl)quinolin-3-yl)(4-(cyclopropanecarbonyl)piperazin-1-yl)methanone]"
4,1 to 10 µM,"O=C(c1cnc2cc(F)c(F)cc2c1N1CCC2(CC1)OCCO2)N1CCN(C(=O)C2CC2)CC1 [Example 122, (4-(cyclopropanecarbonyl)piperazin-1-yl)(6,7-difluoro-4-(1,4-dioxa-8-azaspiro[4.5]decan-8-yl)quinolin-3-yl)methanone]"
5,< 0.5 µM,"CC1(C)CC=C(c2c(C(=O)N3CCN(C(=O)C4CC4)CC3)cnc3ccc(F)cc23)CC1 [Example 77, (4-(cyclopropanecarbonyl)piperazin-1-yl)(4-(4,4-dimethylcyclohex-1-en-1-yl)-6-fluoroquinolin-3-yl)methanone]"

# The next lines start with the compound.
row,SMILES,IC50
1,"N#CC1(c2ccc(-c3c(C(=O)N4CCN(C(=O)C5CC5)CC4)cnc4ccc(F)cc34)cc2)CC1 [Example 262, 1-(4-(3-(4-(cyclopropanecarbonyl)piperazine-1-carbonyl)-6-fluoroquinolin-4-yl)phenyl)cyclopropanecarbonitrile]",< 0.5 µM
2,"O=C(c1cnc2ccc(F)cc2c1N1CCC(F)CC1)N1CCN(C(=O)C2CC2)CC1 [Example 76, (4-(cyclopropanecarbonyl)piperazin-1-yl)(6-fluoro-4-(4-fluoropiperidin-1-yl)quinolin-3-yl)methanone]",> 10 µM
3,"CC1(C#N)CCN(c2c(C(=O)N3CCN(S(C)(=O)=O)CC3)cnc3ccsc23)CC1 [Example 234, 4-methyl-1-(6-(4-(methylsulfonyl)piperazine-1-carbonyl)thieno[3,2-b]pyridin-7-yl)piperidine-4-carbonitrile]",1 to 10 µM
4,"CC1(C#N)CCN(c2c(C(=O)N3CCN(C(=O)C4CC4)CC3)cnc3ccsc23)CC1 [Example 233, 1-(6-(4-(cyclopropanecarbonyl)piperazine-1-carbonyl)thieno[3,2-b]pyridin-7-yl)-4-methylpiperidine-4-carbonitrile]",0.5 to 1 µM
5,"CS(=O)(=O)N1CCN(C(=O)c2cnc3ccc(F)cc3c2N2CCC(C#N)CC2)CC1 [Cpd. 305, 1-(6-fluoro-3-(4-(methylsulfonyl)piperazine-1-carbonyl)quinolin-4-yl)piperidine-4-carbonitrile]",> 10 µM
6,"N#CC1CCN(c2c(C(=O)N3CCN(C(=O)C4CC4)CC3)cnc3ccc(F)cc23)CC1 [Cpd. 302, 1-(3-(4-(cyclopropanecarbonyl)piperazine-1-carbonyl)-6-fluoroquinolin-4-yl)piperidine-4-carbonitrile]",> 10 µM
7,"CN(C)S(=O)(=O)N1CCN(C(=O)c2cnc3ccc(F)cc3c2N2CCC(C)(C#N)CC2)CC1 [Example 157, 4-(4-(4-cyano-4-methylpiperidin-1-yl)-6-fluoroquinoline-3-carbonyl)-N,N-dimethylpiperazine-1-sulfonamide]",< 0.5 µM
8,"O=C(c1cnc2ccc(F)cc2c1N1CCC(F)(F)CC1)N1CCN(C(=O)C2CC2)CC1 [Example 63, (4-(cyclopropanecarbonyl)piperazin-1-yl)(4-(4,4-difluoropiperidin-1-yl)-6-fluoroquinolin-3-yl)methanone]",> 10 µM
9,"CC1(C#N)CCN(c2c(C(=O)N3CCN(S(=O)(=O)C4CC4)CC3)cnc3ccc(F)cc23)CC1 [Example 85, 1-(3-(4-(cyclopropylsulfonyl)piperazine-1-carbonyl)-6-fluoroquinolin-4-yl)-4-methylpiperidine-4-carbonitrile]",> 10 µM
